24 compounds from patent US9855268B2, “Triazolo[4,5-d]pyrimidine derivatives” (Merck Patent GmbH, priority 2013, dated 2018) can be followed below.

One may read the IC50 as the concentration needed to halve the response being measured. A low value points to greater potency in that assay.

Each structure is given as a SMILES string. Structures can show the parent of a compound that is named as a salt. Where only a bound is given, the exact number is not on record here.

The target in the assay is GCN2 (Homo sapiens, UniProt Q9P2K8). The assay can be described thus: GCN2 enzyme assay (TR-FRET Lanthascreen, GFP-eIF2alpha phosphorylation). As to conditions: 10 μM ATP, 80 nM GFP-eIF2a, 30 nM GCN2. Format: biochemical. The essentials: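 Phosphorylation of GFP-eIF2alpha (80 nM) by GCN2 run at room temperature with 10 μM ATP. After EDTA quench, product quantified by Lanthascreen TR-FRET (antibody–GFP complex, 340 nm excitation).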
GCN2, sequence (Q9P2K8 whole entry, species assumed): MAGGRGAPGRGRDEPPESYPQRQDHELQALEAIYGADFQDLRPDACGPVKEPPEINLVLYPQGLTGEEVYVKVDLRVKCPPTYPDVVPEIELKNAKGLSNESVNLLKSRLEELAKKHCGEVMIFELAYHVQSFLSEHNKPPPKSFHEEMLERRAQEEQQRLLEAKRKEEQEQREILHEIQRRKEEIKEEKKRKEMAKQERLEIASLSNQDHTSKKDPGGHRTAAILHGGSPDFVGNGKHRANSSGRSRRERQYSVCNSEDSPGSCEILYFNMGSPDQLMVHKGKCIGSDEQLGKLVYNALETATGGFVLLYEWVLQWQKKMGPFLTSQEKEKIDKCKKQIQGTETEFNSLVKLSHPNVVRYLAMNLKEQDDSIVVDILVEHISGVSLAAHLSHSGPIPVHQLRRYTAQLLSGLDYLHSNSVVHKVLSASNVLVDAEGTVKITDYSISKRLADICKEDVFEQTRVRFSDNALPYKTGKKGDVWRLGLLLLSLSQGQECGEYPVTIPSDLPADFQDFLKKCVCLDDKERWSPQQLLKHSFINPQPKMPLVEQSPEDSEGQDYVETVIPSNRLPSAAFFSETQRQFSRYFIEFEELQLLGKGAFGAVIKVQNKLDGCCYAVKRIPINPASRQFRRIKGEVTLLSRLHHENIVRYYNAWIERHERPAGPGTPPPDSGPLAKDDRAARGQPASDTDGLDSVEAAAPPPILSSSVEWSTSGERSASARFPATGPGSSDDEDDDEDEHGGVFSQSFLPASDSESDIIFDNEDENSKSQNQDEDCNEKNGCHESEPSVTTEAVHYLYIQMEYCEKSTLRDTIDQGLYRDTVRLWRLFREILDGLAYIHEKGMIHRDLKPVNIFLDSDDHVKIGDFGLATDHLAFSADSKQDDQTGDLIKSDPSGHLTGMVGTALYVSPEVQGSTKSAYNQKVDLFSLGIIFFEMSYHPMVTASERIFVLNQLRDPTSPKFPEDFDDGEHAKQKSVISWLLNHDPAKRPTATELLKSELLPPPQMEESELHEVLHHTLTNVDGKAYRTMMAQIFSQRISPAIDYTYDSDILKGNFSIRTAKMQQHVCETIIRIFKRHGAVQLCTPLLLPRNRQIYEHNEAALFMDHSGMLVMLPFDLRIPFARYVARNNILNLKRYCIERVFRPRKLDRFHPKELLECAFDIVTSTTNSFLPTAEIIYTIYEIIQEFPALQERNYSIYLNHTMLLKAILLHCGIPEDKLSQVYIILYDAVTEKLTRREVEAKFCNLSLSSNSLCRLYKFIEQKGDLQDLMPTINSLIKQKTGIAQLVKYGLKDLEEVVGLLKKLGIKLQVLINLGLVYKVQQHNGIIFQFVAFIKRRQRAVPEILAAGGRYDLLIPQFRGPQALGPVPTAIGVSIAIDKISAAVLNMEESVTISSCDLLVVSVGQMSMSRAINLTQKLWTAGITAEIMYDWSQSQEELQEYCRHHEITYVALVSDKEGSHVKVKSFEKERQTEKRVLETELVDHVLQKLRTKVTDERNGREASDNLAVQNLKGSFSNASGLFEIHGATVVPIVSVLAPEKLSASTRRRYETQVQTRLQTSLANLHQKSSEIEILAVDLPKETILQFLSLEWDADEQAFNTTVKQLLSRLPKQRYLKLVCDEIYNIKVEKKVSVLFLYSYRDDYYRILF
In general terms: In TR-FRET formats the signal depends on donor and acceptor labels being close together.
Compound `COc1ccc(-n2nnc3cnc(N[C@H]4CCNC4)nc32)cc1` [A77, [3-(4-methoxy-phenyl)-3H-[1,2,3]triazolo[4,5-d]pyrimidin-5-yl]-(S)-pyrrolidin-3-yl-amine hydrochloride] yielded an IC50 of 5000 to 10000 nM.
With `COc1ccc(-n2nnc3cnc(NC4CCN(CCN5CCOCC5)CC4)nc32)cc1` [A78, [3-(4-methoxy-phenyl)-3H-[1,2,3]triazolo[4,5-d]pyrimidin-5-yl]-[1-(2-morpholin-4-yl-ethyl)-piperidin-4-yl]-amine] the figure was 1000 to 5000 nM; with `COc1ccc(-n2nnc3cnc(N[C@@H]4CC[C@H](C(=O)O)C4)nc32)cc1` [A79, (1S,3R)-3-[3-(4-methoxy-phenyl)-3H-[1,2,3]triazolo[4,5-d]pyrimidin-5-ylamino]-cyclopentanecarboxylic acid], < 1000 nM; with `COc1ccc(-n2nnc3cnc(NC4CCN(c5ccncc5)CC4)nc32)cc1` [A82, [3-(4-methoxy-phenyl)-3H-[1,2,3]triazolo[4,5-d]pyrimidin-5-yl]-(3,4,5,6-tetrahydro-2H-[1,4′]bipyridinyl-4-yl)-amine], < 1000 nM.
Turning to `COc1ccc(-n2nnc3cnc(N[C@@H]4CCN(C(=O)CN(C)C)C4)nc32)cc1` [A83, 2-dimethylamino-1-{(R)-3-[3-(4-methoxy-phenyl)-3H-[1,2,3]triazolo[4,5-d]-pyrimidin-5-ylamino]-pyrrolidin-1-yl}-ethanone formate], the IC50 was < 1000 nM.
With `COc1ccc(-n2nnc3cnc(N[C@@H]4CCN(C(=O)CCN(C)C)C4)nc32)cc1` [A85, 3-dimethylamino-1-{(R)-3-[3-(4-methoxy-phenyl)-3H-[1,2,3]triazolo[4,5-d]-pyrimidin-5-ylamino]-pyrrolidin-1-yl}-propan-1-one formate] the figure was < 1000 nM.
Consider `COc1ccc(-n2nnc3cnc(NC4CCN(CCN5CCCC5)CC4)nc32)cc1` [A86, [3-(4-methoxy-phenyl)-3H-[1,2,3]triazolo[4,5-d]pyrimidin-5-yl]-[1-(2-pyrrolidin-1-yl-ethyl)-piperidin-4-yl]-amine], for which the IC50 was < 1000 nM.
Consider `COc1ccc(-n2nnc3cnc(NC4CCNC(=O)C4)nc32)cc1` (stereo not drawn) [A87, 4-[3-(4-methoxy-phenyl)-3H-[1,2,3]triazolo[4,5-d]pyrimidin-5-ylamino]-piperidin-2-one], for which the IC50 is 1000 to 5000 nM.
With `COc1ccc(-n2nnc3cnc(N[C@H]4CC[C@@H](NC(=O)OCc5ccccc5)C4)nc32)cc1` [A89, {(1R,3S)-3-[3-(4-methoxy-phenyl)-3H-[1,2,3]triazolo[4,5-d]pyrimidin-5-ylamino]-cyclopentyl}-carbamic acid benzyl ester] the figure was 1000 to 5000 nM; with `COc1ccc(-n2nnc3cnc(N[C@@H]4CCN(C(=O)Cn5cccn5)C4)nc32)cc1` [A90, 1-{(R)-3-[3-(4-methoxy-phenyl)-3H-[1,2,3]triazolo[4,5-d]pyrimidin-5-ylamino]-pyrrolidin-1-yl}-2-pyrazol-1-yl-ethanone], < 1000 nM.
With `COc1ccc(-n2nnc3cnc(N[C@H]4CCN(C(=O)CN(C)C)C4)nc32)cc1` [A91, 2-dimethylamino-1-{(S)-3-[3-(4-methoxy-phenyl)-3H-[1,2,3]triazolo[4,5-d]-pyrimidin-5-ylamino]-pyrrolidin-1-yl}-ethanone formate] the figure was 1000 to 5000 nM.
Take `COc1ccc(-n2nnc3cnc(N[C@H]4CCN(C(=O)CCN(C)C)C4)nc32)cc1` [A92, 3-dimethylamino-1-{(S)-3-[3-(4-methoxy-phenyl)-3H-[1,2,3]triazolo[4,5-d]-pyrimidin-5-ylamino]-pyrrolidin-1-yl}-propan-1-one formate]: the IC50 lay in the range of 1000 to 5000 nM.
On to `N[C@H]1CC[C@H](Nc2ncc3nnn(-c4ccc(OCCN5CCOCC5)cc4)c3n2)CC1` [A95, trans-N-{3-[4-(2-morpholin-4-yl-ethoxy)-phenyl]-3H-[1,2,3]triazolo[4,5-d]pyrimidin-5-yl}-cyclohexane-1,4-diamine], for which the IC50 is < 1000 nM.
In the case of `N[C@H]1CC[C@H](Nc2ncc3nnn(-c4ccc(N5CCOCC5)cn4)c3n2)CC1` [A96, trans-N-[3-(5-morpholin-4-yl-pyridin-2-yl)-3H-[1,2,3]triazolo[4,5-d]pyrimidin-5-yl]-cyclohexane-1,4-diamine], the IC50 lay in the range of 1000 to 5000 nM.
Turning to `COc1ccc(-n2nnc3cnc(N[C@@H]4CC[C@H](C(=O)N5CCN(C)CC5)C4)nc32)cc1` [A97, {(1S,3R)-3-[3-(4-methoxy-phenyl)-3H-[1,2,3]triazolo[4,5-d]pyrimidin-5-ylamino]-cyclopentyl}-(4-methyl-piperazin-1-yl)-methanone], the IC50 was < 1000 nM.
`COc1ccc(-n2nnc3cnc(N[C@@H]4CCOC4)nc32)cc1` [A98, [3-(4-methoxy-phenyl)-3H-[1,2,3]triazolo[4,5-d]pyrimidin-5-yl]-(R)-tetrahydrofuran-3-yl-amine]: the IC50 was < 1000 nM.
Turning to `COC(=O)[C@H]1CC[C@H](Nc2ncc3nnn(-c4ccc(OC)cc4)c3n2)C1` [A110, (1S,3S)-3-[3-(4-methoxy-phenyl)-3H-[1,2,3]triazolo[4,5-d]pyrimidin-5-ylamino]-cyclopentanecarboxylic acid methyl ester], the IC50 was < 1000 nM.
For the compound `COC(=O)[C@@H]1CC[C@@H](Nc2ncc3nnn(-c4ccc(OC)cc4)c3n2)C1` [A113, (1R,3R)-3-[3-(4-methoxy-phenyl)-3H-[1,2,3]triazolo[4,5-d]pyrimidin-5-ylamino]-cyclopentanecarboxylic acid methyl ester], the IC50 is < 1000 nM.
With `Cc1ccc2cc(-n3nnc4cnc(N[C@@H]5CCNC5)nc43)ccc2n1` [A126, [3-(2-methyl-quinolin-6-yl)-3H-[1,2,3]triazolo[4,5-d]pyrimidin-5-yl]-(R)-pyrrolidin-3-yl-amine] the figure was < 1000 nM; with `COc1ccc(-n2nnc3cnc(N[C@@H]4CC[C@@H](C(=O)O)C4)nc32)cc1` [A139, (1R,3R)-3-[3-(4-methoxy-phenyl)-3H-[1,2,3]triazolo[4,5-d]pyrimidin-5-ylamino]-cyclopentanecarboxylic acid], < 1000 nM.
With `CCOc1ccc(-n2nnc3cnc(N[C@@H]4CC[C@H](C(N)=O)C4)nc32)cc1` [A149, (1S,3R)-3-[3-(4-ethoxy-phenyl)-3H-[1,2,3]triazolo[4,5-d]pyrimidin-5-ylamino]-cyclopentanecarboxylic acid amide], the IC50 was < 1000 nM.
The value for `NC(=O)[C@@H]1CC[C@@H](Nc2ncc3nnn(-c4ccc(N5CCOCC5=O)c(F)c4)c3n2)C1` [A154, (1R,3R)-3-{3-[3-fluoro-4-(3-oxo-morpholin-4-yl)-phenyl]-3H-[1,2,3]triazolo[4,5-d]pyrimidin-5-ylamino}-cyclopentanecarboxylic acid amide] was < 1000 nM.
With `COc1c(F)cc(-n2nnc3cnc(N[C@@H]4CC[C@@H](C(N)=O)C4)nc32)cc1F` [A163, (1R,3R)-3-[3-(3,5-difluoro-4-methoxy-phenyl)-3H-[1,2,3]triazolo[4,5-d]pyrimidin-5-ylamino]-cyclopentanecarboxylic acid amide] the figure was < 1000 nM; with `COCCOc1ccc(-n2nnc3cnc(N[C@@H]4CC[C@H](C(N)=O)C4)nc32)cc1` [A166, (1S,3R)-3-{3-[4-(2-methoxy-ethoxy)-phenyl]-3H-[1,2,3]triazolo[4,5-d]pyrimidin-5-ylamino}-cyclopentanecarboxylic acid amide], < 1000 nM.
